Measured values from patent US20090137661A1, “PLANT DERIVED COMPOUNDS AND COMPOUND FORMULAE CONTAINING THE SAME FOR THE TREATMENT OF CERVICAL CANCER” (priority 2007, published 2009).
In brackets after ≈: the same amount, converted by molar mass. Where two headings read alike, the source gives them in different places.

Assays:
HeLa cells [1] = assay: MTT assay within the anti-infection screening platform; format: cell-based, human; settings: 48 hours, concentrations inhibiting HPV 16 pseudovirus
Text: (§1) Carrageenan was used as positive control. […] The cell survival rate and IC50 of each sample were obtained in accordance with the method stated above.

HeLa cells [2] = assay: Cytotoxicity assay (MTT assay) on HeLa cells; settings: for IC50: Homo sapiens, HeLa; for cytotoxicity to HeLa cells compared with Doxorubicin HCl: under the corresponding conditions
Protocol: HeLa cell line was obtained from Dr. S. S. Shen (Biomedical Engineering Research Laboratories of Industrial Technology Research Institute of Taiwan). HeLa cells are adherent cells and were propagated and maintained in Dulbecco's modified Eagle's medium (DMEM) supplemented with 10% fetal bovine serum (FBS), […] sodium bicarbonate (NaHCO3), 1 mM sodium pyruvate, and 0.1 mM non-essential amino acid.
(§2) Cytotoxicity Assay (MTT Assay)
The cytotoxicity of the compounds set forth herein to HeLa cells and HUVEC cells were determined by the MTT assay. The HUVEC cells were used to understand the cytotoxicity of said compounds to normal human cells. Besides, doxorubicin HCl was used as a comparative example so as to investigate the efficacy of the compounds according to the embodiments of the present invention.
Briefly, the MTT assay comprises the following steps: • (A) Cells were seeded in 96-well plates 3 hours before treatment, wherein the density of HeLa cell is 1×10^4 cells per well and the density of HUVEC cell is 2×10^4 cells per well; • (B) Cells were then treated with various concentrations of tested samples and incubated for a predetermined period (24, 48, and 72 hours); • (C) After the predetermined periods expired, the tested samples were removed and 100 μl MTT reagent (1 mg/ml) was added to each well; • (D) The plates were incubated at 37° C. with 5% of CO2 for 5 hours; • (E) The MTT reagent was removed and 100 μl DMSO was added to each well; • (F) The optical density (O.D.) of each well was determined by ELISA reader at a wavelength of 560 nm.
Each experiment was repeated for 3 times and the result shown in the tables herein were the mean value of the 3 repetitions. The O.D. of the vehicle control and experimental groups were recorded. The cell survival rate of each sample was calculated as follows:
Cell survival rate(%)=O.D.control/O.D.experimental*100%
Then, the cell survival rate was plotted against the compound concentration and the IC50 value of each compound was calculated by the GraFit data analysis software (Erithacus Software Ltd.).

HPV 16 pseudovirus = assay: Screening for anti-infection compounds (GFP-expressing HPV 16 pseudovirus infecting HeLa cells); format: cell-based, human papilloma virus 16; settings: for IC50: Pseudovirus, HeLa, 48 h, read-out: IC50 for inhibiting HPV 16 pseudoviruses
Protocol: […] were co-transfected with codon-modified papillomavirus capsid genes, L1 and L2, plasmid: p16shell, and a GFP reporter plasmid, pClneo-GFP, to monitor the infectivity of the stock.
The GFP-expressing HPV 16 pseudoviruses were prepared and harvested in accordance with the protocol provided by the National Cancer Institute (USA). Said protocol is available on line at http://home.ccr.cancer.gov/lco/production.asp which is incorporated herein by reference in its entirety.
In the present application, the GFP-expressing HPV 16 pseudoviruses used have titers of about 4*10^8 infectious units per ml.
HeLa cells were seeded in 96-well plates at a density of 6×10^3 cells per well. 24 hours later, 2×HPV 16 pseudoviruses of various volumes were added. The signal to background ratio of each volume of the HPV 16 pseudoviruses was illustrated in FIG. 2.
When choosing screening platform, the infection rate should be around 20%. […] Under this dosage, the signal to background ratio is 2.0-2.5.
as §1

HUVEC cells = assay: Cytotoxicity assay (MTT assay) on HUVEC cells; format: cell-based, human; settings: for IC50: Homo sapiens, HUVEC cells
Text: Human umbilical vein endothelial cells (HUVEC) were purchased from Food Industry Research and Development Institute in Hsin-Chu City, Taiwan. HUVEC cells were propagated and maintained in Medium 199 supplemented with 10% FBS, Heparin, and […].
as §2

[3] = 24 h, read-out: IC50 at 24 hours, HeLa
[4] = 48 h, read-out: IC50 at 48 hours, HeLa
[5] = 72 h, read-out: IC50 at 72 hours, HeLa
[6] = 24 hours, read-out: IC50 at 24 hours, HUVEC
[7] = 48 hours, read-out: IC50 at 48 hours, HUVEC
[8] = 72 hours, read-out: IC50 at 72 hours, HUVEC

Row | Compound | survival rates of HeLa cells in anti-infection screening (HeLa cells [1]) | IC50 (HeLa cells [2]; [3]) | IC50 (HeLa cells [2]; [4]) | IC50 (HeLa cells [2]; [5]) | cytotoxicity to HeLa cells compared with Doxorubicin HCl (HeLa cells [2]) | IC50 (HPV 16 pseudovirus) | HUVEC Cell Survival Rate (HUVEC cells; 10 μg/ml, 48 hrs) | HUVEC Cell Survival Rate (HUVEC cells; 10 μg/ml, 72 hrs) | HUVEC Cell Survival Rate (HUVEC cells; 100 μg/ml, 24 hrs) | HUVEC Cell Survival Rate (HUVEC cells; 100 μg/ml, 48 hrs) | HUVEC Cell Survival Rate (HUVEC cells; 100 μg/ml, 72 hrs) | IC50 (HUVEC cells; [6]) | IC50 (HUVEC cells; [7]) | IC50 (HUVEC cells; [8]) | HeLa Cell Survival Rate (HeLa cells [2]; 0.1 μg/ml, 24 hrs) | HeLa Cell Survival Rate (HeLa cells [2]; 1 μg/ml, 72 hrs) | HeLa Cell Survival Rate (HeLa cells [2]; 10 μg/ml, 24 hrs) | HeLa Cell Survival Rate (HeLa cells [2]; 10 μg/ml, 48 hrs) | HeLa Cell Survival Rate (HeLa cells [2]; 10 μg/ml, 72 hrs) | HeLa Cell Survival Rate (HeLa cells [2]; 100 μg/ml, 48 hrs) | other results
1 | O=C(O)c1cc(O)c(O)c(O)c1 [Compound D, gallic acid] | higher than 80% | 37 µg/mL (≈ 217 µM) | 26 µg/mL (≈ 153 µM) | 45 µg/mL (≈ 265 µM) | higher cytotoxicity | 8.9 µg/mL (≈ 52.3 µM) | – | – | – | – | – | – | – | – | – | – | – | – | – | – | HeLa Cell Survival Rate (HeLa cells [2]; 0.125 μg/ml, 24 hrs): 85%; HeLa Cell Survival Rate (HeLa cells [2]; 0.125 μg/ml, 48 hrs): 96%; HeLa Cell Survival Rate (HeLa cells [2]; 0.125 μg/ml, 72 hrs): 101%; HeLa Cell Survival Rate (HeLa cells [2]; 1.25 μg/ml, 24 hrs): 84%; HeLa Cell Survival Rate (HeLa cells [2]; 1.25 μg/ml, 48 hrs): 91%; HeLa Cell Survival Rate (HeLa cells [2]; 1.25 μg/ml, 72 hrs): 103%; HeLa Cell Survival Rate (HeLa cells [2]; 12.5 μg/ml, 24 hrs): 90%; HeLa Cell Survival Rate (HeLa cells [2]; 12.5 μg/ml, 48 hrs): 82%; HeLa Cell Survival Rate (HeLa cells [2]; 12.5 μg/ml, 72 hrs): 99%; HeLa Cell Survival Rate (HeLa cells [2]; 125 μg/ml, 24 hrs): 17%; HeLa Cell Survival Rate (HeLa cells [2]; 125 μg/ml, 48 hrs): 11%; HeLa Cell Survival Rate (HeLa cells [2]; 125 μg/ml, 72 hrs): 8%
2 | Carrageenan [reference compound] | – | – | – | – | – | – | – | – | – | – | – | – | – | – | – | – | – | – | – | – | IC50 for inhibiting HPV 16 pseudoviruses (HPV 16 pseudovirus; HeLa cells infected with 0.25 μl HPV 16 pseudovirus per well, 48 hours): about 0.07 μg/ml
3 | Cc1cc2c(C(C)C)c(O)c(O)c(C=O)c2c(O)c1-c1c(C)cc2c(C(C)C)c(O)c(O)c(C=O)c2c1O [Compound F, gossypol-acetic acid] | – | 29 µg/mL (≈ 55.9 µM) | 12 µg/mL (≈ 23.1 µM) | 8 µg/mL (≈ 15.4 µM) | higher cytotoxicity | – | 85% | 71% | 20% | 17% | 17% | 30 µg/mL (≈ 57.9 µM) | 33 µg/mL (≈ 63.6 µM) | 23 µg/mL (≈ 44.4 µM) | 101% | 98% | 80% | 52% | 40% | 13% | HUVEC Cell Survival Rate (HUVEC cells; 0.1 μg/ml, 24 hrs): 93%; HUVEC Cell Survival Rate (HUVEC cells; 0.1 μg/ml, 48 hrs): 104%; HUVEC Cell Survival Rate (HUVEC cells; 0.1 μg/ml, 72 hrs): 103%; HUVEC Cell Survival Rate (HUVEC cells; 1 μg/ml, 24 hrs): 88%; HUVEC Cell Survival Rate (HUVEC cells; 1 μg/ml, 48 hrs): 104%; HUVEC Cell Survival Rate (HUVEC cells; 1 μg/ml, 72 hrs): 98%; HUVEC Cell Survival Rate (HUVEC cells; 10 μg/ml, 24 hrs): 80%; HeLa Cell Survival Rate (HeLa cells [2]; 0.1 μg/ml, 48 hrs): 103%; HeLa Cell Survival Rate (HeLa cells [2]; 0.1 μg/ml, 72 hrs): 98%; HeLa Cell Survival Rate (HeLa cells [2]; 1 μg/ml, 24 hrs): 97%; HeLa Cell Survival Rate (HeLa cells [2]; 1 μg/ml, 48 hrs): 105%; HeLa Cell Survival Rate (HeLa cells [2]; 100 μg/ml, 24 hrs): 17%; HeLa Cell Survival Rate (HeLa cells [2]; 100 μg/ml, 72 hrs): 10%; HUVEC/HeLa ratio of IC50 (HeLa cells [2]; 24 hours): 1.0; HUVEC/HeLa ratio of IC50 (HeLa cells [2]; 48 hours): 2.8; HUVEC/HeLa ratio of IC50 (HeLa cells [2]; 72 hours): 2.9
4 | O=c1cc(-c2ccccc2)oc2cc(O)c(O)c(O)c12 [Compound C, baicalein] | higher than 80% | – | – | – | – | 8.2 µg/mL (≈ 30.3 µM) | – | – | – | – | – | – | – | – | – | – | – | – | – | – | –
5 | O=c1c(O)c(-c2ccc(O)c(O)c2)oc2cc(O)cc(O)c12 [Compound E, quercetin] | – | > 100 µg/mL | 20 µg/mL (≈ 66.2 µM) | 6 µg/mL (≈ 19.9 µM) | – | – | 87% | 80% | 120% | 51% | 26% | > 100 µg/mL | 104 µg/mL (≈ 344 µM) | 36 µg/mL (≈ 119 µM) | 93% | 91% | 83% | 51% | 33% | 32% | HeLa Cell Survival Rate (HeLa cells [2]; 100 μg/ml, 72 hrs): 12%
